Experimental findings from ChEMBL document CHEMBL5154818, “Development of oxoisoaporphine derivatives with topoisomerase I inhibition and reversal of multidrug resistance in breast cancer MCF-7/ADR cells” (Eur J Med Chem, 2022) are described below.

The subject of one series is A549. As to the kind of experiment: Antiproliferative activity against human A549 cells after 48 hrs by MTT assay. Format: functional, cell-based. The conditions noted are these: A549, 48 h. Background: Tetrazolium dyes change colour on reduction, which living cells bring about.
The subject of series [1] is NCI/ADR-RES. As to the kind of experiment: Antiproliferative activity against human MCF7/ADR cells after 48 hrs by MTT assay. Format: functional, cell-based.
In the next series the test system is MDA-MB-231. Briefly: Antiproliferative activity against human MDA-MB-231 cells after 48 hrs by MTT assay. The class given is functional, cell-based. The settings on record: MDA-MB-231, 48 h.
In series [2] the test system is MCF7. Briefly: Induction of cell cycle arrest in human MCF7 cells assessed accumulation of cells at S phase at 2 uM measured after 48 hrs by propidium iodide staining based flow cytometric analysis (reference value: 27.53%). The class given is functional.
The test system of series [3] is MCF7. As to the kind of experiment: Induction of cell cycle arrest in human MCF7 cells assessed accumulation of cells at G1 phase at 4 uM measured after 48 hrs by propidium iodide staining based flow cytometric analysis (reference value: 45.94%). Format: functional. (A flow cytometer gives signals particle by particle.)
Series [4] deals with MCF7. As to the kind of experiment: Induction of cell cycle arrest in human MCF7 cells assessed accumulation of cells at G1 phase at 8 uM measured after 48 hrs by propidium iodide staining based flow cytometric analysis (reference value: 45.94%). Format: functional.
The test system of series [5] is MCF7. Briefly: Induction of cell cycle arrest in human MCF7 cells assessed accumulation of cells at G2 phase at 8 uM measured after 48 hrs by propidium iodide staining based flow cytometric analysis (reference value: 37.81%). Format: functional.
Series [6] has as its system MCF7. As to the kind of experiment: Antiproliferative activity against human MCF7 cells assessed as growth inhibition at 3 uM after 48 hrs by MTT assay relative to control. The class given is functional. The settings on record: read-out: GI.
The subject of series [7] is NCI/ADR-RES. As to the kind of experiment: Induction of apoptosis in human MCF7/ADR cells assessed as increase in apoptotic rate at 2 to 8 uM measured after 48 hrs by Annexin V-FITC/propidium iodide staining based flow cytometry analysis. Format: functional. The settings on record: dose 2-8 µM.
The test system of series [8] is NCI/ADR-RES. Briefly: Induction of apoptosis in human MCF7/ADR cells assessed as increase intracellular ROS level at 0.1 uM measured by DCFH-DA dye based flow cytometric analysis. Format: functional, cell-based.
Series [9] relates to NCI/ADR-RES. Briefly: Induction of apoptosis in human MCF7/ADR cells assessed as increase in Bax expression at 5 to 20 uM measured after 24 hrs by Western blotting analysis. Format: functional, cell-based. The conditions noted are these: dose 5-20 µM. For orientation: Immunoblotting shows a protein as a band on a membrane.
Series [10] has as its target T1, ATP-dependent translocase ABCB1 (Homo sapiens, UniProt P08183). Briefly: Inhibition of P-gp-mediated multidrug resistance in human MCF7/ADR cells at 10 to 20 uM assessed as rhodamine123 accumulation treated with rhodamine123 measured after 24 hrs by flow cytometry. Format: cell-based. The conditions noted are these: nci/adr-res, dose 10-20 µM.
Series [11] concerns the target T1, ATP-dependent translocase ABCB1. Briefly: Inhibition of P-gp-mediated multidrug resistance in human MCF7/ADR cells assessed as decrease in P-gp expression at 20 uM measured after 24 hrs by Western blot analysis. The class given is cell-based. The conditions noted are these: NCI/ADR-RES.
A short description of series [12]: Toxicity in BALB/c nude mouse xenografted with human MCF7 cells assessed as heart tissue damage at 1 to 10 mg/kg, ip administered 3 times a week for 3 weeks. Format: organism-based. The settings on record: in vivo, 504 h, dose 1-10 mg/kg.

Active and inactive are the calls of the source. The calls are words filed in the database; no cut-off is given here.

T1 sequence (P08183 whole entry): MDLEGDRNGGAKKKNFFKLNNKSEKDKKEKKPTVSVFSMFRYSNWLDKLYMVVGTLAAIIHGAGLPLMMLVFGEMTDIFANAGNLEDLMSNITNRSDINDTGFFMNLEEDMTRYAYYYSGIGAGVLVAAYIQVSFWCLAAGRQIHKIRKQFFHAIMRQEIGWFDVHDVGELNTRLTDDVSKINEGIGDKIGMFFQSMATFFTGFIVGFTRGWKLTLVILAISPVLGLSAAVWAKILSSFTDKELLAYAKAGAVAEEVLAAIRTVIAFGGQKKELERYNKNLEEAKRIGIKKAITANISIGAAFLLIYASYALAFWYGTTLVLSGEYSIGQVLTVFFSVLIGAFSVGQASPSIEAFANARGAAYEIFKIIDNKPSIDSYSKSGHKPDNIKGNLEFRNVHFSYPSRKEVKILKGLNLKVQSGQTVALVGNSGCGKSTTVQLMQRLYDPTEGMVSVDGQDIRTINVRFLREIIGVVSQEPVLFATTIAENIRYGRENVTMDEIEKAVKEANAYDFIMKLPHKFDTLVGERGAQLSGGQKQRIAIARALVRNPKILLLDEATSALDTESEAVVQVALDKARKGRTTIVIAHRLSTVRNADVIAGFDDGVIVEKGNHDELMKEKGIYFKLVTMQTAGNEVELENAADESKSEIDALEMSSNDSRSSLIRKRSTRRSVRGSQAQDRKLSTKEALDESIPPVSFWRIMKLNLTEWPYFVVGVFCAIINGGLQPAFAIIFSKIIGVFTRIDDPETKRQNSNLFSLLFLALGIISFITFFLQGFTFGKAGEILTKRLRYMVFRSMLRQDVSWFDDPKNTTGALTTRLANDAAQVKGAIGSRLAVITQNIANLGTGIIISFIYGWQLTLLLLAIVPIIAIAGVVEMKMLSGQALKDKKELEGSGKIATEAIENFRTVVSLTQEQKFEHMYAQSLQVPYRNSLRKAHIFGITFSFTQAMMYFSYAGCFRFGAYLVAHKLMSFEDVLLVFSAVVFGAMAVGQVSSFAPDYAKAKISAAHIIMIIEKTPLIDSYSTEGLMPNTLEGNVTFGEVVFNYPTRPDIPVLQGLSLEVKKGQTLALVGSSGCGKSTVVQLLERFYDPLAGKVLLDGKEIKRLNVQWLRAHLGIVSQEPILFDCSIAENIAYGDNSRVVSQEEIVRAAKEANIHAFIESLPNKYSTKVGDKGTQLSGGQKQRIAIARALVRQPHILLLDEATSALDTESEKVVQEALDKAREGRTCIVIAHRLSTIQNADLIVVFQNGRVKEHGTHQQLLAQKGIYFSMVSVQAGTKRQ

Usually IC50 stands for the concentration needed to halve the response being measured. By inhibition is commonly meant the share of the control response that was lost under treatment. As to `CC1CCCCN1CCOc1ccc2c3c(nccc13)-c1ccccc1C2=O` (centres undefined), the 50% inhibitory concentration (IC50) in the series on A549 was 2.39 µM; with NCI/ADR-RES [1], 7.64 µM; in the series with MDA-MB-231, 2.42 µM. Further, the Activity with MCF7 [2] is 25.72%; in the series on MCF7 [3], 51.07%; with MCF7 [4] it was 53.27%; with MCF7 [5], 31.38%; with NCI/ADR-RES [7], 15.2%; in [12], “Non-Toxic”. The inhibition of growth at 3 µM in the series with MCF7 [6] turned out to be 24.4%. Moreover, the result with NCI/ADR-RES [8] and in the series on NCI/ADR-RES [9] was Active. The “inhibition (INH)” value in series [10] was “Active”. The inhibition at 20 µM in series [11] was 18.1%.
